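Exposure lasted 48 hours, with cells grown in 96-well plates and compounds tested at five concentrations. GI50: concentration for 50% inhibition of growth.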 The source made the active and inactive calls. Cut-off read from the data, not from the text of the source: active = GI50 up to about 1.1 µM and inactive = higher.
Legend:
Experiment in all cases: growth of human tumour cells (NCI), 48 h
[1] = system: CAKI-1
[2] = system: HOP-92
[3] = system: ACHN
[4] = system: UO-31
[5] = system: SF-268
[6] = system: SK-MEL-5
[7] = system: A549
[8] = system: HCT-15
[9] = system: SK-OV-3
[10] = system: NCI/ADR-RES
[11] = system: MCF7
[12] = system: M14
[13] = system: IGROV-1
[14] = system: NCI-H23
[15] = system: U-251
[16] = system: SF-539
[17] = system: SK-MEL-28
[18] = system: HCC 2998
[19] = system: BT-549
[20] = system: MOLT-4
[21] = system: RXF 393
[22] = system: CCRF-CEM
[23] = system: KM12
[24] = system: OVCAR-3
[25] = system: SW-620
[26] = system: OVCAR-8
[27] = system: OVCAR-4
[28] = system: RPMI-8226
[29] = system: SR
[30] = system: A498
[31] = system: OVCAR-5
[32] = system: HL-60
[33] = system: 786-0
[34] = system: HT-29
[35] = system: SN12C
[36] = system: Hs-578T
[37] = system: SNB-19
[38] = system: PC-3
[39] = system: SNB-75
[40] = system: K562
[41] = system: NCI-H460
[42] = system: LOX IMVI
[43] = system: TK-10
[44] = system: EKVX
[45] = system: UACC-62
[46] = system: MDA-MB-231
[47] = system: Malme-3M
[48] = system: SK-MEL-2
[49] = system: T47D
[50] = system: SF-295
[51] = system: NCI-H522
[52] = system: UACC-257
[53] = system: HCT-116
[54] = system: MDA-MB-435
[55] = system: HOP-62
[56] = system: COLO 205
[57] = system: DU-145
[58] = system: NCI-H226

## COc1cc(/C=C2\CCc3ccccc3C2=O)ccc1O
[1]
  GI50: 24.3 µM (inactive)
[2]
  GI50: 22.6 µM (inactive)
[3]
  GI50: 26.4 µM (inactive)
[4]
  GI50: 14.3 µM (inactive)
[5]
  GI50: 27.1 µM (inactive)
[6]
  GI50: 17.7 µM (inactive)
[7]
  GI50: 22.1 µM (inactive)
[8]
  GI50: 22.4 µM
[9]
  GI50: 26 µM (inactive)
[10]
  GI50: 29.5 µM (inactive)
[11]
  GI50: 11.1 µM (inactive)
[12]
  GI50: 17.9 µM (inactive)
[13]
  GI50: 34.3 µM (inactive)
[14]
  GI50: 23 µM (inactive)
[15]
  GI50: 16.9 µM (inactive)
[16]
  GI50: 16.1 µM (inactive)
[17]
  GI50: 21.1 µM (inactive)
[18]
  GI50: 5.64 µM (inactive)
[19]
  GI50: 17.9 µM (inactive)
[20]
  GI50: 12 µM (inactive)
[21]
  GI50: 12 µM (inactive)
[22]
  GI50: 1.41 µM (inactive)
[23]
  GI50: 16.3 µM (inactive)
[24]
  GI50: 19.6 µM (inactive)
[25]
  GI50: 16.1 µM (inactive)
[26]
  GI50: 19.1 µM (inactive)
[27]
  GI50: 18.5 µM (inactive)
[28]
  GI50: 17.9 µM (inactive)
[29]
  GI50: 11.2 µM (inactive)
[30]
  GI50: > 10 µM (inactive)
[31]
  GI50: 14.2 µM (inactive)
[32]
  GI50: 4.24 µM (inactive)
[33]
  GI50: 13.7 µM (inactive)
[34]
  GI50: 18.2 µM (inactive)
[35]
  GI50: 22.4 µM (inactive)
[36]
  GI50: 29 µM (inactive)
[37]
  GI50: 14.6 µM (inactive)
[38]
  GI50: > 10 µM (inactive)
[39]
  GI50: 28.5 µM (inactive)
[40]
  GI50: 16.8 µM (inactive)
[41]
  GI50: 17.3 µM (inactive)
[42]
  GI50: 15 µM (inactive)
[43]
  GI50: 18.7 µM (inactive)
[44]
  GI50: 25.4 µM (inactive)
[45]
  GI50: > 10 µM (inactive)

## O=C1C=Cc2cscc21
[1]
  GI50: 27.4 µM (inactive)
[2]
  GI50: > 100 µM (inactive)
[46]
  GI50: 31.8 µM (inactive)
[3]
  GI50: 34.5 µM (inactive)
[4]
  GI50: 26.2 µM (inactive)
[47]
  GI50: 27 µM (inactive)
[48]
  GI50: 79.1 µM (inactive)
[5]
  GI50: 92.5 µM (inactive)
[6]
  GI50: 81.7 µM (inactive)
[7]
  GI50: 62.7 µM (inactive)
[8]
  GI50: 22.7 µM
[9]
  GI50: > 100 µM (inactive)
[49]
  GI50: 27.5 µM (inactive)
[10]
  GI50: 28.8 µM (inactive)
[11]
  GI50: 15.3 µM (inactive)
[50]
  GI50: 49.4 µM (inactive)
[51]
  GI50: 19.6 µM (inactive)
[12]
  GI50: 26.4 µM (inactive)
[13]
  GI50: 32.4 µM (inactive)
[14]
  GI50: 21.2 µM (inactive)
[52]
  GI50: > 100 µM (inactive)
[15]
  GI50: 37.9 µM (inactive)
[16]
  GI50: > 100 µM (inactive)
[17]
  GI50: 69.8 µM (inactive)
[19]
  GI50: 53.7 µM (inactive)
[20]
  GI50: 14.3 µM (inactive)
[21]
  GI50: 16.6 µM (inactive)
[22]
  GI50: 22.6 µM (inactive)
[23]
  GI50: 71.4 µM (inactive)
[24]
  GI50: 21.5 µM (inactive)
[25]
  GI50: 33.3 µM (inactive)
[26]
  GI50: 32.6 µM (inactive)
[27]
  GI50: 81.3 µM (inactive)
[28]
  GI50: 20.4 µM (inactive)
[53]
  GI50: 15.3 µM (inactive)
[30]
  GI50: > 100 µM (inactive)
[32]
  GI50: 29 µM (inactive)
[33]
  GI50: 16.4 µM (inactive)
[34]
  GI50: 35.5 µM (inactive)
[35]
  GI50: 28.1 µM (inactive)
[36]
  GI50: > 100 µM (inactive)
[37]
  GI50: 78.2 µM (inactive)
[38]
  GI50: 42 µM (inactive)
[54]
  GI50: 48.5 µM (inactive)
[55]
  GI50: > 100 µM (inactive)
[39]
  GI50: 42.5 µM (inactive)
[40]
  GI50: 31.9 µM (inactive)
[41]
  GI50: > 100 µM (inactive)
[56]
  GI50: 47.4 µM (inactive)
[42]
  GI50: 35.8 µM (inactive)
[43]
  GI50: 42.5 µM (inactive)
[44]
  GI50: 46.5 µM (inactive)
[45]
  GI50: > 100 µM (inactive)
[57]
  GI50: 34.3 µM (inactive)

## O=C(Nc1ccccc1C(=O)NCc1ccccc1)/C(=C/c1ccccc1)NC(=O)c1ccccc1
[1]
  GI50: > 100 µM (inactive)
[58]
  GI50: > 100 µM (inactive)
[2]
  GI50: > 100 µM (inactive)
[46]
  GI50: > 100 µM (inactive)
[3]
  GI50: > 100 µM (inactive)
[4]
  GI50: > 100 µM (inactive)
[48]
  GI50: > 100 µM (inactive)
[5]
  GI50: > 100 µM (inactive)
[6]
  GI50: > 100 µM (inactive)
[7]
  GI50: > 100 µM (inactive)
[8]
  GI50: > 100 µM
[9]
  GI50: > 100 µM (inactive)
[49]
  GI50: > 100 µM (inactive)
[10]
  GI50: 62.2 µM (inactive)
[11]
  GI50: > 100 µM (inactive)
[50]
  GI50: > 100 µM (inactive)
[51]
  GI50: > 100 µM (inactive)
[12]
  GI50: > 100 µM (inactive)
[13]
  GI50: > 100 µM (inactive)
[14]
  GI50: > 100 µM (inactive)
[52]
  GI50: > 100 µM (inactive)
[15]
  GI50: > 100 µM (inactive)
[16]
  GI50: > 100 µM (inactive)
[17]
  GI50: > 100 µM (inactive)
[18]
  GI50: > 100 µM (inactive)
[19]
  GI50: > 100 µM (inactive)
[20]
  GI50: 80.7 µM (inactive)
[21]
  GI50: > 100 µM (inactive)
[22]
  GI50: > 100 µM (inactive)
[23]
  GI50: > 100 µM (inactive)
[24]
  GI50: > 100 µM (inactive)
[25]
  GI50: > 100 µM (inactive)
[26]
  GI50: > 100 µM (inactive)
[27]
  GI50: 49.3 µM (inactive)
[28]
  GI50: > 100 µM (inactive)
[29]
  GI50: > 100 µM (inactive)
[53]
  GI50: > 100 µM (inactive)
[30]
  GI50: > 100 µM (inactive)
[31]
  GI50: > 100 µM (inactive)
[32]
  GI50: > 100 µM (inactive)
[33]
  GI50: 47.6 µM (inactive)
[34]
  GI50: > 100 µM (inactive)
[35]
  GI50: > 100 µM (inactive)
[36]
  GI50: 63.1 µM (inactive)
[37]
  GI50: > 100 µM (inactive)
[38]
  GI50: > 100 µM (inactive)
[54]
  GI50: > 100 µM (inactive)
[55]
  GI50: > 100 µM (inactive)
[39]
  GI50: 92.7 µM (inactive)
[40]
  GI50: > 100 µM (inactive)
[56]
  GI50: > 100 µM (inactive)
[42]
  GI50: > 100 µM (inactive)
[43]
  GI50: > 100 µM (inactive)
[44]
  GI50: > 100 µM (inactive)
[45]
  GI50: > 100 µM (inactive)
[57]
  GI50: > 100 µM (inactive)

From ChEMBL document CHEMBL1201862, “PubChem BioAssay data set” (2004)
